biological target: T1, IL-2Rβ subunit (Homo sapiens, UniProt P14784); assay: competitive binding assay, specific binding site on the IL-2Rβ subunit; settings: not given
T1 construct: human IL-2Rβ (CD122 protein, Fc Tag) (27-239); Fc; purchased ACRObiosystems, Inc. ILB-H5253
T1 sequence (P14784 27-239): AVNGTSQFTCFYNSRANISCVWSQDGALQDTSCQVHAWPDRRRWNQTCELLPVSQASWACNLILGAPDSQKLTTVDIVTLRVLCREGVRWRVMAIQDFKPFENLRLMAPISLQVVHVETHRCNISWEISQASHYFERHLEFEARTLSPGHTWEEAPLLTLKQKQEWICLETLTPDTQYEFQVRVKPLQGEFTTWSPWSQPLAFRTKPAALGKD

IC50, < 10 µM:
CC[C@H](C)[C@@H]1NC(=O)[C@H](CCCNC(=N)N)NC(=O)[C@@H](NC(=O)[C@H](CC(=O)O)NC(=O)[C@@H](N)Cc2ccc(O)cc2)CSSC[C@@H](C(=O)N[C@@H](CC(=O)O)C(=O)N[C@@H](CC(C)C)C(=O)O)NC(=O)[C@H](CC(C)C)NC(=O)[C@H](CCC(=O)O)NC(=O)CNC(=O)[C@H](C(C)C)NC(=O)[C@H](CCC(N)=O)NC(=O)[C@H](C)NC1=O [SEQ ID NO: 154, Y D C R I A Q V G E L C D L]
CC[C@H](C)[C@H](NC(=O)[C@H](CCC(N)=O)NC(=O)[C@@H]1CSSC[C@H](NC(=O)[C@H](CCSC)NC(=O)[C@@H](N)CC(N)=O)C(=O)N[C@@H](CC(C)C)C(=O)N[C@@H](C(C)C)C(=O)NCC(=O)N[C@@H](CC(=O)O)C(=O)N[C@@H](Cc2ccc(O)cc2)C(=O)N[C@@H](Cc2c[nH]c3ccccc23)C(=O)N2CCC[C@H]2C(=O)N[C@@H](CO)C(=O)N1)C(=O)O [SEQ ID NO: 180, N M C L V G D Y W P S C Q I]
CSCC[C@H](NC(=O)[C@H](CC(C)C)NC(=O)[C@H](CC(C)C)NC(=O)[C@H](CC(=O)O)NC(=O)CNC(=O)[C@@H](NC(=O)[C@H](CC(=O)O)NC(=O)CNC(=O)[C@H](Cc1c[nH]c2ccccc12)NC(=O)[C@@H](N)CCCNC(=N)N)C(C)C)C(=O)N1CCC[C@H]1C(=O)N[C@@H](CC(C)C)C(=O)O [SEQ ID NO: 209, R W G D V G D L L M P L]

biological target: T2, IL-7Rα subunit (Homo sapiens, UniProt P16871); assay: competitive binding assay, specific binding site on the IL-7Rα subunit; settings: specific binding site distinct from that of IL-7
T2 construct: human IL-7Rα (CD127 protein, Fc Tag) (21-236); Fc; purchased ACRObiosystems, Inc. ILB-H5258
T2 sequence (P16871 21-236): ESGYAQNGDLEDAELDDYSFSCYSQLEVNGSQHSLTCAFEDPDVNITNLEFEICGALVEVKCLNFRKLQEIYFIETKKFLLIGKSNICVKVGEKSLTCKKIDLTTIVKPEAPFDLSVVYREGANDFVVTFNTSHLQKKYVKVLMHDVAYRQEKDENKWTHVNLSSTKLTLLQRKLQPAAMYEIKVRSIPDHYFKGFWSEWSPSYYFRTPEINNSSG

IC50, < 10 µM:
CC[C@H](C)[C@@H]1NC(=O)[C@H](CCC(=O)O)NC(=O)[C@H](C)NC(=O)[C@@H](NC(=O)[C@H](Cc2ccc(O)cc2)NC(=O)[C@@H](N)C(C)C)CSSC[C@@H](C(=O)N[C@@H](CCCNC(=N)N)C(=O)N[C@@H](CCC(N)=O)C(=O)O)NC(=O)[C@H](C(C)C)NC(=O)[C@H](CCCNC(=N)N)NC(=O)[C@H](Cc2ccc(O)cc2)NC(=O)[C@H](CCC(=O)O)NC(=O)CNC1=O [SEQ ID NO: 2043, V Y C A E I G E Y R V C R Q]
CC[C@H](C)[C@@H]1NC(=O)[C@@H](NC(=O)[C@@H](N)CCC(N)=O)CSSC[C@@H](C(=O)N[C@H](C(=O)O)C(C)C)NC(=O)[C@H](CO)NC(=O)[C@H](CC(C)C)NC(=O)[C@H](CC(C)C)NC(=O)[C@H]([C@@H](C)O)NC(=O)[C@H](CCC(=O)O)NC(=O)[C@H]([C@@H](C)CC)NC(=O)[C@H](CC(=O)O)NC(=O)[C@H](Cc2c[nH]c3ccccc23)NC(=O)[C@H](Cc2c[nH]cn2)NC1=O [SEQ ID NO: 2159, Q C I H W D I E T L L S C V]
CC(C)C[C@@H]1NC(=O)[C@H](CO)NC(=O)CNC(=O)[C@@H]2CCCN2C(=O)[C@H](CC(=O)O)NC(=O)[C@H](CC(C)C)NC(=O)[C@H]([C@@H](C)O)NC(=O)[C@@H](NC(=O)[C@H](Cc2c[nH]c3ccccc23)NC(=O)[C@@H]2CCCN2C(=O)[C@@H](N)C(C)C)CSSC[C@@H](C(=O)N[C@@H](C)C(=O)N[C@@H](Cc2c[nH]c3ccccc23)C(=O)N[C@@H](Cc2ccccc2)C(=O)O)NC(=O)[C@H](CCC(N)=O)NC1=O [SEQ ID NO: 2313, V P W C T L D P G S L Q C A W F]
